This is an account of results in patent US8696867B2, “Disulfo-type fluorescent whitening agents” (Blankophor GmbH & Co. KG, priority 2009, dated 2014).

Series [1] is described as follows: Solubility of fluorescent whitening agent in distilled water (saturated solution). Format: physicochemical. The conditions noted are these: ambient temperature (about 22° C.), grams FWA dissolved in 100 g saturated FWA solution. As to the method:
The solubility of the fluorescent whitening agents was determined as follows: a dry powder of fluorescent whitening agent was added to 50 ml of distilled water until the saturation point was reached. The thus obtained saturated solution was filtered, dried and the dried residue was weighted.
The indicated percentages are based on the amount of grams of fluorescent whitening agent dissolved in 100 g of the corresponding saturated FWA solution.

Series [2] in a line: Storage stability of approximately 20% aqueous solution. It counts as physicochemical. The conditions noted are these: approximately 20% solution, ambient temperature and 4° C., without stirring. As to the method: The stability behavior was studied by storing an approximately 20% solution of FWA 1 and FWA 2, respectively, at ambient temperature and at 4° C., each without stirring. The aqueous brightener preparations have a shelf-life of more than 30 days both at ambient and low temperature.

As for `O=C([O-])c1ccc(Nc2nc(Nc3ccc(/C=C/c4ccc(Nc5nc(Nc6ccc(C(=O)[O-])cc6)nc(N(CCO)CCO)n5)cc4S(=O)(=O)[O-])c(S(=O)(=O)[O-])c3)nc(N(CCO)CCO)n2)cc1.[Na+].[Na+].[Na+].[Na+]` [FWA 1], the solubility in series [1] worked out at 27.8%. For the same compound, the “crystalline precipitates on storage” value in series [2] was “no crystalline precipitates”.

The compound `CC(O)CN(CC(C)O)c1nc(Nc2ccc(C(=O)[O-])cc2)nc(Nc2ccc(/C=C/c3ccc(Nc4nc(Nc5ccc(C(=O)[O-])cc5)nc(N(CC(C)O)CC(C)O)n4)cc3S(=O)(=O)[O-])c(S(=O)(=O)[O-])c2)n1.[Na+].[Na+].[Na+].[Na+]` (stereo not shown) [FWA 2] came in with a solubility in series [1] of 24.2%. Further, the “crystalline precipitates on storage” value in series [2] is reported as “no crystalline precipitates”.
